{
  "source": "patent US20240261237A1",
  "about": "“REDUCING SIDE EFFECTS OF NMDA RECEPTOR ANTAGONISTS” (Seelos Therapeutics, Inc., priority 2021, published 2024)",
  "key": {"[1]": {"tested_on": "adults with major depressive disorder (MDD) at imminent risk of suicide", "experiment": "Example 4 Phase 2 study: C-SSRS", "conditions": "24 hours post-administration, baseline yes"}, "[2]": {"conditions": "in vivo; cited from earlier work"}, "[3]": {"tested_on": "adults with major depressive disorder (MDD) at imminent risk of suicide", "experiment": "Example 4 Phase 2 study: CADSS (dissociation)", "conditions": "for CADSS change from baseline: at 40 minutes"}, "[4]": {"tested_on": "adults with major depressive disorder (MDD) at imminent risk of suicide", "experiment": "Example 4 Phase 2 study: STS-CMCM total score", "format": "in vivo, human", "conditions": "for STS mean score: baseline 21.9; for STS-CMCM score (range 0-52 units): 24 hours post-administration", "description": "The Sheehan Suicidality Tracking Scale (Sheehan-STS, S-STS) is a prospective rating scale that tracks both treatment-emergent suicidal ideation and behaviors. The Sheehan-STS is a scale with 14 core items and nine additional questions contingent on the core responses that can be administered either by a clinician or patient through self-report. Each item in the Sheehan-STS is scored on a 5-point Likert scale (0=not at all, 1=a little, 2-moderately, 3=very, and 4-extremely).\n(§1) The CMCM version of the S-STS (S-STS CMCM) has four parts, and can also provide a comprehensive description of suicidal ideation and behavior. See, e.g., Sheehan et al., Innov. Clin. Neurosci. Vol. 11, No. 9-10, pp. 93-140 (2014) The S-STS CMCM (version 01/01/19) is a clinician-rated outcome measure which assesses SI/B on multiple patient and clinician-rated items. It includes 13 suicidality items that are rated on a Likert-type scale ranging from “not at all” (0) to “extremely” (4), yielding a total score ranging from 0 to 52. The final 6 items are used only when the patient misses a visit and is unable to complete the scale; if that missed visit is due to attempted or completed suicide, the possible maximum score is […]. The CMCM also yields 5 different single-item global assessments: 1) subject-rated likelihood of a suicide attempt; 2) subject-rated treatment needed; 3) clinician global severity of suicidal impulses, thoughts, and behaviors; 4) clinician judgment of suicide risk at this time and level of management needed for suicidality; and 5) clinician judgment of subject's likelihood of making a suicide attempt or of dying by suicide in the next 7 days.\n(§2) The secondary endpoints are the change from baseline at 24 hours, as well as at Day 16, in the following: • (1) PGIS-SI/B (Day 16 only) • (2) S-STS total score (Day 16 only) • (3) CGI of Change in SI/B (CGIC-SI/B) • (4) PGI of Change in SI/B (PGIC-SI/B) • (5) S-STS Clinician-Rated Global Severity of Suicidal Impulses, Thoughts, and Behaviors • (6) S-STS Clinician judgment of subject's risk of a suicide attempt or death by suicide at this time • (7) S-STS Clinician judgment of subject's likelihood (risk) of making a suicide attempt or of dying by suicide in the next 7 days • (8) S-STS Subject-rated global severity of suicidal impulses, thoughts, and behavior • (9) S-STS Subject-rated treatment needed score • (10) MADRS item 10 response rate (response≤3 units) • (11) MADRS response (total score ≥50% reduction from baseline) • (12) MADRS remission (total score ≤12)"}, "subjects": {"tested_on": "subjects", "conditions": "in vivo; cited from earlier work"}, "[5]": {"tested_on": "adults with major depressive disorder (MDD) at imminent risk of suicide", "experiment": "Example 4 Phase 2 study: STS-CMCM risk of suicide at this time", "format": "in vivo, human", "description": "as §1, §2"}, "[6]": {"tested_on": "adults with major depressive disorder (MDD) at imminent risk of suicide", "experiment": "Example 4 Phase 2 study: adverse events", "conditions": "in vivo"}, "[7]": {"tested_on": "adults with major depressive disorder (MDD) at imminent risk of suicide", "experiment": "Example 4 Phase 2 study: MADRS Total", "format": "in vivo, human", "conditions": "both subjects; 24 hours", "description": "The Montgomery-Åsberg Depression Rating Scale (MADRS) is used to assess the severity of depression among subjects who have a diagnosis of depression. The MADRS includes 10 items and uses a 0 to 6 severity scale, scored following the interview. Higher scores indicate increasing depressive symptoms. Ratings can be added to form an overall score (range 0 to 60); no weights are used. Cut-off points include: 0 to 6—symptom absent, 7 to 19—mild depression, 20 to 34—moderate, 35 to 60—severe depression.\n(§3) MADRS is a diagnostic questionnaire that can be used to measure the severity of a depressive episode in a subject. In some embodiments, the MADRS can be used to measure the severity of depressive symptoms in a subject, for example, a subject suffering from MDD, TRD, bipolar depression, and other psychiatric disorders described herein with a depression component. In some embodiments, the MADRS can be used to measure TRD. In some embodiments, the MADRS can be used to measure other psychiatric disorders, as described herein. […]"}, "[8]": {"tested_on": "adults with major depressive disorder (MDD) at imminent risk of suicide", "experiment": "Example 4 Phase 2 study: MADRS item 10 (suicidality)", "format": "in vivo, human", "conditions": "for MADRS item 10 score: 24 hours post-administration", "description": "as §3"}, "[9]": {"tested_on": "adults with major depressive disorder (MDD) at imminent risk of suicide", "experiment": "Example 4 Phase 2 study: MOAA/S (sedation)"}, "[10]": {"tested_on": "adults with major depressive disorder (MDD) at imminent risk of suicide", "experiment": "Example 4 Phase 2 study: STS-CMCM Risk of Suicide at Within the Next 7 Days", "format": "in vivo, human", "description": "as §1, §2"}},
  "data": [
    {"smiles": "CNC1(c2ccccc2Cl)CCCCC1=O", "note": "(racemic) [racemic ketamine, (R)-2-(2-chlorophenyl)-2-(methylamino)cyclohexanone and (S)-2-(2-chlorophenyl)-2-(methylamino)cyclohexanone]", "values": [
      {"measurement": "C-SSRS score for suicidal ideation (yes or no)", "setting": "[1]; Subject 1", "result": "no"},
      {"measurement": "C-SSRS score for suicidal ideation (yes or no)", "setting": "[1]; Subject 2", "result": "no"},
      {"measurement": "antidepressant properties", "setting": "[2]", "result": "exhibit antidepressant properties"},
      {"measurement": "subjects with no dissociation (CADSS)", "setting": "[3]; Days 1 and 4, 7 subjects", "result": "four of the 7"},
      {"measurement": "subjects reporting dissociation", "setting": "[3]; after Day 4 (on Day 11 at 40 minutes), 7 subjects", "result": 1},
      {"measurement": "CADSS change from baseline", "setting": "[3]; Day 4 (after second dose)", "result": 2.3},
      {"measurement": "CADSS change from baseline", "setting": "[3]; Day 8 (after third dose)", "result": 0.4},
      {"measurement": "CADSS change from baseline", "setting": "[3]; after first dose", "result": 3.8},
      {"measurement": "sedation or dissociation", "setting": "[3]; entire patient cohort to the Day 29/30 endpoint", "result": "no clinically meaningful sedation or dissociation"},
      {"measurement": "patients with >14 points within-patient change from baseline in STS", "setting": "[4]; Day 1", "result": 94, "unit": "%"},
      {"measurement": "patients with 4 points within-patient change in STS", "setting": "[4]; Day 1, 1 patient", "result": 6, "unit": "%"},
      {"measurement": "STS mean score", "setting": "[4]; Day 1", "result": 1.7},
      {"measurement": "STS mean score", "setting": "[4]; Day 16", "result": 0.0},
      {"measurement": "STS mean score", "setting": "[4]; Day 29", "result": 0.0},
      {"measurement": "STS-CMCM score (range 0-52 units)", "setting": "[4]; Subject 1, from 18 units", "result": "zero"},
      {"measurement": "STS-CMCM score (range 0-52 units)", "setting": "[4]; Subject 2, from 22 units", "result": 3, "unit": "units"},
      {"measurement": "movement during the anesthetic recovery phase / locomotor activity", "setting": "subjects", "result": "increased movement during the anesthetic recovery phase"},
      {"measurement": "STS-CMCM score (range 0-9; risk of suicide at this time)", "setting": "[5]; Subject 1, 24 hours post-administration, baseline 7 units", "result": 3, "unit": "units"},
      {"measurement": "STS-CMCM score (range 0-9; risk of suicide at this time)", "setting": "[5]; Subject 1, Day 9", "result": 2, "unit": "units"},
      {"measurement": "STS-CMCM score (range 0-9; risk of suicide at this time)", "setting": "[5]; Subject 2, 24 hours post-administration, from 7 units", "result": 3, "unit": "units"},
      {"measurement": "STS-CMCM score (range 0-9; risk of suicide at this time)", "setting": "[5]; Subject 2, Day 9", "result": "zero"},
      {"measurement": "STS-CMCM score (range 0-9; risk of suicide at this time)", "setting": "[5]; both subjects, Day 8", "result": 2, "unit": "units"},
      {"measurement": "serious adverse events", "setting": "[6]", "result": "no serious adverse events were observed"},
      {"measurement": "reduction of MADRS Total", "setting": "[7]", "result": "> 50", "unit": "%"},
      {"measurement": "MADRS item 10 score", "setting": "[8]; Subject 1, baseline 5 units", "result": 0, "unit": "units"},
      {"measurement": "MADRS item 10 score", "setting": "[8]; second subject (not named), baseline 5 units pre-dose", "result": 0, "unit": "units"},
      {"measurement": "sustained response (MADRS Item 10) after the final administration", "setting": "[8]; with SOC", "result": 15, "unit": "days"},
      {"measurement": "MOAA/S score of the 1 subject with a score <5 units on subsequent dosing days", "setting": "[9]; 6-hour time-point on Day 4", "result": 4, "unit": "units"},
      {"measurement": "subjects with MOAA/S score of 5 units at all time-points", "setting": "[9]; Day 1, 7 subjects", "result": "5 of 7"},
      {"measurement": "MOAA/S score, all subjects", "setting": "[9]; Day 1, no one below", "result": "≥ 4", "unit": "units"},
      {"measurement": "STS-CMCM Risk of Suicide at Within the Next 7 Days score", "setting": "[10]; Subject 1, 24 hours post-administration, from 5 units", "result": 2, "unit": "units"},
      {"measurement": "STS-CMCM Risk of Suicide at Within the Next 7 Days score", "setting": "[10]; Subject 2, 24 hours post-administration, baseline 7 units", "result": 1, "unit": "unit"},
      {"measurement": "STS-CMCM Risk of Suicide at Within the Next 7 Days score", "setting": "[10]; the scores on Day 4", "result": 1, "unit": "unit"},
      {"measurement": "STS-CMCM Risk of Suicide at Within the Next 7 Days score", "setting": "[10]; the scores on Day 8", "result": 0, "unit": "units"}
    ]},
    {"smiles": "NC1(c2ccccc2Cl)CCCCC1=O", "note": "(stereo not shown) [norketamine]", "values": [
      {"measurement": "movement during the anesthetic recovery phase / locomotor activity", "setting": "subjects", "result": "increased movement during the anesthetic recovery phase"}
    ]},
    {"smiles": "NC1(c2ccccc2Cl)CCCC(O)C1=O", "note": "(stereo not shown) [6-hydroxynorketamine]", "values": [
      {"measurement": "antidepressant properties", "setting": "[2]", "result": "exhibit antidepressant properties"},
      {"measurement": "movement during the anesthetic recovery phase / locomotor activity", "setting": "subjects", "result": "no anesthetic or locomotor activity"}
    ]}
  ]
}
